US8436011B2, “Pyridinopyridinone derivatives, preparation thereof and therapeutic use thereof” (Sanofi, priority 2008, dated 2013)
pIC50: −log10 of the molar value. Where two headings read alike, the source gives them in different places.

How the values were obtained:
[1] = target: fusion protein FIP1L1-PDGF-Rα (EOL-1 cell line) (Homo sapiens, UniProt P16234); test: Inhibition of PDGF alpha receptor tyrosine kinase activity: proliferation of EOL-1 cells (CellTiter-Glo, 72 h); format: cell-based
Sequence of fusion protein FIP1L1-PDGF-Rα (EOL-1 cell line) (P16234 579-1089, change not shown): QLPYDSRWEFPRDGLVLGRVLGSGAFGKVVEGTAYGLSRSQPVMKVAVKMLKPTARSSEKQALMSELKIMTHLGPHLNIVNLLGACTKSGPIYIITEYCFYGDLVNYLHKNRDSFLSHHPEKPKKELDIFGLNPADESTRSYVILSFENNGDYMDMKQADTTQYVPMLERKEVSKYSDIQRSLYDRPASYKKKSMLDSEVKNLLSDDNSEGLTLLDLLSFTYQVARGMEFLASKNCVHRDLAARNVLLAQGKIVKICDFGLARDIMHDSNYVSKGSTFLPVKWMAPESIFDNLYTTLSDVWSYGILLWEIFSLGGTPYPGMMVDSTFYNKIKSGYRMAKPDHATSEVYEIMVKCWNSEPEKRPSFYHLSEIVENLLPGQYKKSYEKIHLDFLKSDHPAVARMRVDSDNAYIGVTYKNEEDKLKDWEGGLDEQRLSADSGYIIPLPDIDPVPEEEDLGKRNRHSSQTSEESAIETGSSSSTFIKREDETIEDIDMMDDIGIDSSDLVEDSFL
Sequence of fusion protein FIP1L1-PDGF-Rα (EOL-1 cell line) (Q6UN15 1-339 partner): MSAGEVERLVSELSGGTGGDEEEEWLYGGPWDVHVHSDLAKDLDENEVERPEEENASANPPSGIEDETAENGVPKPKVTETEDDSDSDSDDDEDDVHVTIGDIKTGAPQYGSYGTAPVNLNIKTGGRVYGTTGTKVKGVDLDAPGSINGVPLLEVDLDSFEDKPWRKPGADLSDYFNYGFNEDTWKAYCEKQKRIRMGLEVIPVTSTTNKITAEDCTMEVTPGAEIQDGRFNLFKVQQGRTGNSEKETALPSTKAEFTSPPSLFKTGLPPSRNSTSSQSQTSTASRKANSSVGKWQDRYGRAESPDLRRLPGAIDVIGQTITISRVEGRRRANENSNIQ
Protocol: Measurement of Inhibition of the Tyrosine Kinase Activity of the PDGF Alpha Receptor: The inhibitory effect of the compounds according to the invention towards the tyrosine kinase activity of the PDGF alpha receptor was evaluated on the EOL-1 cell line, which line is established from a leukaemia of constitutively active chronic eosinophilic leukaemia (CEL) type. The EOL-1 line has been described as expressing the fusion protein FIP1L1-PDGF-Rα and is sensitive to kinase inhibitors in proliferation tests (Cools J. et al., Blood 2004, 103, […]). The inhibitory activity is correlated to the inhibition of cell growth. […] After incubation for 72 hours, the viable cells are quantified by measuring the cellular ATP by means of the CellTiter-Glo® kit (Promega, Cat G7571). The cells are treated according to the instructions given by the kit manufacturer, and the luminescence is measured using a Luminoskan (Ascent, Labsystem) with the following parameters: measurement: single; integration time: 1000 ms, lag time: 5 s. It is thus seen that the compounds according to the invention have inhibitory activity on the tyrosine kinase activity of PDGF-Rα. This activity is given by the concentration that inhibits 50% of the proliferation of the EOL-1 cells.

[2] = target: T1, fusion protein Tel/PDGF-Rβ (BaF3 Tel/PDGF cells) (Homo sapiens, UniProt P09619); test: Inhibition of PDGF-Rβ tyrosine kinase activity: proliferation of BaF3 Tel/PDGF cells (CellTiter-Glo, 72 h); format: cell-based, murine; conditions: 72 hours incubation, read-out: IC50 (concentration that inhibits 50% of the proliferation of the BaF3 Tel/PDGF cells)
T1 construct: the transmembrane and intracellular part of the PDGF-Rβ receptor; N-terminal part of the Tel transcription factor (ETV6); expressed in transfected cells; host or cells: murine haematopoietic cell line BaF/3; the other entry of the earlier key: ETV6 (P41212, Transcription factor ETV6)
T1 sequence (P09619 with tags, fused parts or gaps): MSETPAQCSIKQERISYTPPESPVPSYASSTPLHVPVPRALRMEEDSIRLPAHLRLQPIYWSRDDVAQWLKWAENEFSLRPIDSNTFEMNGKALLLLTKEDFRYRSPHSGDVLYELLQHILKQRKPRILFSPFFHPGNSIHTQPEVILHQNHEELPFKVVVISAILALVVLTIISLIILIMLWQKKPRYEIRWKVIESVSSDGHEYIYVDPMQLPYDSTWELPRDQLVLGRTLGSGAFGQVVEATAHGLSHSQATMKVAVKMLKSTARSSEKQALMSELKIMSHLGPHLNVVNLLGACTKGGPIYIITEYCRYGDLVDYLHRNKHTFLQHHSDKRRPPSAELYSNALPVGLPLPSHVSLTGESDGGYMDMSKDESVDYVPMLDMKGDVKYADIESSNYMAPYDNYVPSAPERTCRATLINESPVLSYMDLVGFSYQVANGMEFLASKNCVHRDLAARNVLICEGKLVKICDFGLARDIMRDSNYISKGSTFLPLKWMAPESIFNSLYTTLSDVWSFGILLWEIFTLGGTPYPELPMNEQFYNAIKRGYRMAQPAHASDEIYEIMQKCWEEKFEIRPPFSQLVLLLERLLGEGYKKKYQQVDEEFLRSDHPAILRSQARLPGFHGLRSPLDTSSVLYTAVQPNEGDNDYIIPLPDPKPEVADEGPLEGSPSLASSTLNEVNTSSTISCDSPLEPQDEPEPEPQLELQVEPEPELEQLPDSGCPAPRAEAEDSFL
Protocol: Measurement of Inhibition of the Tyrosine Kinase Activity of the PDGF Beta (PDGF-Rβ) (Baf-3 tel/PDGFIRβ) Receptor:
This test consists in evaluating the effects of the compounds on the tyrosine kinase activity of the PDGF beta receptor.
The inhibitory effect of the compounds according to the invention towards the tyrosine kinase activity of the PDGF-R receptor was evaluated on the murine haematopoietic cell line BaF/3 transfected with a plasmid coding for the fusion protein Tel/PDGF-Rβ. This fusion protein is found in chronic myelomonocytic myeloid leukaemias (CMML). It comprises the N-terminal part of the Tel transcription factor and the transmembrane and intracellular part of the PDGF-Rβ receptor. This fusion protein is present in dimerized form (presence of an oligomerization domain in the N-terminal part of Tel) and, as a result, leads to constitutive activity of the kinase domain of PDGF-Rβ. This line BaF3 Tel/PDGF has been described in the literature several times and especially, in detailed manner, in the article by M. Carroll et al., PNAS, 1996, 93, 14845-14850.
(§1) The BaF3 Tel/PDGF cells are washed with phosphate buffer and inoculated in 96-well plates, at a density of 5×10^4 cells/ml (100 ml per well), in RPMI 1640 containing 10% FCS, in the presence or absence of the test compounds. After incubation for 72 hours, the viable cells are quantified by measuring the cellular ATP by means of the CellTiter-Glo® kit (Promega, Cat G7571). The cells are treated according to the instructions given by the kit manufacturer, and the luminescence is measured using a Luminoskan (Ascent, Labsystem) with the following parameters: measurement: single; integration time: 1000 ms, lag time: 5 s.
It is thus seen that the compounds according to the invention have inhibitory activity on the tyrosine kinase activity of PDGF-Rβ. This activity is given by the concentration that inhibits 50% of the proliferation of the BaF3 Tel/PDGF cells (IC50).

[3] = target: T2, FLT3 receptor (MV4-11 cell line bearing an FLT3ITD mutant) (Homo sapiens, UniProt P36888, INS600HVDFREYEYD); test: Inhibition of FLT3 receptor tyrosine kinase activity: proliferation of MV4-11 cells (CellTiter-Glo, 72 h); format: cell-based; conditions: 72 hours incubation, read-out: IC50 (concentration that inhibits 50% of the proliferation of the MV4-11 cells)
T2 construct: MV4-11 cell line, which line is established from a leukaemia of constitutively active AML type bearing an FLT3ITD mutant; endogenous in cells; host or cells: MV4-11
T2 sequence (P36888 with tags, fused parts or gaps INS600HVDFREYEYD): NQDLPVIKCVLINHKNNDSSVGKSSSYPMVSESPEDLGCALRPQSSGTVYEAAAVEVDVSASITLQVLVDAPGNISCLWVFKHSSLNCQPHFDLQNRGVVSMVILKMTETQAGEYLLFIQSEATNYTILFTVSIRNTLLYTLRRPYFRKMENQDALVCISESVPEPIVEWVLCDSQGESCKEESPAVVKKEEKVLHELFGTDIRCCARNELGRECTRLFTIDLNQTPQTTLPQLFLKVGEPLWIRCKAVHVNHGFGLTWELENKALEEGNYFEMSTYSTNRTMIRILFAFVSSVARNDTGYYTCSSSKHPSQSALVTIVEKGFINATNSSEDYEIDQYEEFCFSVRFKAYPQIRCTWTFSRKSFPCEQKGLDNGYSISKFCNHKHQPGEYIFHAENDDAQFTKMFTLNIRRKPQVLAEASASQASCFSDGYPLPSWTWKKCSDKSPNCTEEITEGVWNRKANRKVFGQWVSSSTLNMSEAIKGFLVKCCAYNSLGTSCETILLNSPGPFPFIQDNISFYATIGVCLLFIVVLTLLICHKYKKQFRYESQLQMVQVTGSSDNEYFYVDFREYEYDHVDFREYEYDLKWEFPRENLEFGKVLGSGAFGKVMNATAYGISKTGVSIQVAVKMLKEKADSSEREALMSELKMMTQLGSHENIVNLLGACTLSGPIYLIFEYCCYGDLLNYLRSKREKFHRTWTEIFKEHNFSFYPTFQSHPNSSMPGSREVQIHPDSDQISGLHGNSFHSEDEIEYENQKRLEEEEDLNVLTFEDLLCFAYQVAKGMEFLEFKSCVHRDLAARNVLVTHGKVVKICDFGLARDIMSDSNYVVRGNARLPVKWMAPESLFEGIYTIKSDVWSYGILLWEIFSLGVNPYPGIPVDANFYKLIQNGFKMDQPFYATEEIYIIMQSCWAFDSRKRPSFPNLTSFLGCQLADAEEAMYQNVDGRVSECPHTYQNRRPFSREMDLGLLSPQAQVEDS
Protocol: Measurement of Inhibition of the Tyrosine Kinase Activity of the FLT3 Receptor
The inhibitory effect of the compounds according to the invention towards the tyrosine kinase activity of the FLT3 receptor was evaluated on an MV4-11 cell line, which line is established from a leukaemia of constitutively active AML type bearing an FLT3ITD mutant. The inhibitory activity is correlated to the inhibition of cell growth, according to the protocols described by Spiekermann, K. et al., Blood, 2003, 101, (4) 1494-1504 and O'Farrell, A.-M. et al., Blood, 2003, 101, (9) 3597-3605.
as §1, with “MV4-11 cells” for “The BaF3 Tel/PDGF cells”, “with PBS” for “with phosphate”, “of 1×10^5” for “of 5×10^4”, “(100 μL” for “(100 ml”
The inhibitory activity with respect to the FLT3 receptor is given by the concentration that inhibits 50% of the proliferation of the MV4-11 cells.

| pIC50 ([1]; 72 hours incubation, read-out: IC50 (concentration that inhibits 50% of the proliferation of the EOL-1 cells)) | Compound | pIC50 ([1]; read-out: IC50 (concentration that inhibits 50% of the proliferation of the EOL-1 cells), 72 hours incubation) | pIC50 [2] | pIC50 [3] | melting point [°C] |
| --- | --- | --- | --- | --- | --- |
|  | CCn1c(N)c(C(=O)NC)c(=O)c2ccc(-c3ccc(CC(=O)Nc4cc(F)cc(F)c4)cc3)nc21 [compound 6, 2-amino-7-(4-{2-[(3,5-difluorophenyl)amino]-2-oxoethyl}phenyl)-1-ethyl-N-methyl-4-oxo-1,4-dihydro-1,8-naphthyridine-3-carboxamide] | 9.24 | 7.96 | 7.00 | > 260 |
| 9.10 | CCn1c(N)c(C(=O)NC)c(=O)c2ccc(-c3ccc(CC(=O)Nc4nccs4)cc3)nc21 [compound 35, 2-amino-1-ethyl-N-methyl-4-oxo-7-{4-[2-oxo-2-(1,3-thiazol-2-ylamino)-ethyl]phenyl}-1,4-dihydro-1,8-naphthyridine-3-carboxamide] |  | 8.43 | 7.08 | 303 |
